This series is described as follows: chemical recovery from spiked human plasma; higher = better extraction. The conditions noted are these: pooled human plasma.
[1] abbreviates: extraction method: solvent precipitation (ACN + hexane).
The mark [2] stands for this setting: extraction method: PES+SPE (3 d PDMS equilibration then HLB SPE).
Setting [3] is: extraction method: SPE only (HLB 96-well).
The mark [4] stands for this setting: extraction method: SPE only (HLB 96-well), PES comparison experiment.

Structures can show the parent of a compound that is named as a salt. ± gives the standard deviation.

As for `N=C(NCCCCCCNC(=N)NC(=N)Nc1ccc(Cl)cc1)NC(=N)Nc1ccc(Cl)cc1` [Chlorohexidine], the chemical recovery under setting [1] was 54.5 ± 1.9%.

In the case of `COc1nc(C)nc(NC(=O)NS(=O)(=O)c2ccccc2Cl)n1` [Chlorosulfuron], the chemical recovery under setting [1] amounted to 67.9 ± 3.4%.

As for `N#Cc1c(O)c(Cl)c(Cl)c(C#N)c1Cl` [Chlorothalonil-4-hydroxy], the chemical recovery is, setting by setting: under setting [2], 37.1 ± 5.2%; under setting [3], 32.4 ± 3%; under setting [4], 33.8 ± 7.8%.

As to `N#Cc1cc(Cl)c(O)c(Cl)c1` [Chloroxynil], the chemical recovery was 59 ± 2.5% under setting [2], 46.1 ± 5.2% under setting [3] and 74.3 ± 3.8% under setting [1].

`CN(C)CCC(c1ccc(Cl)cc1)c1ccccn1` (stereo not drawn) [Chlorpheniramine]: the chemical recovery under setting [2] was found to be 0.333 ± 0.13%, the chemical recovery under setting [3] stood at 33.5 ± 3.4% and the chemical recovery under setting [1] was 54 ± 5.6%.

In the case of `CCCNC(=O)NS(=O)(=O)c1ccc(Cl)cc1` [Chlorpropamide], the chemical recovery under setting [2] turned out to be 55.3 ± 5%, the chemical recovery under setting [3] stood at 47.5 ± 3.5% and the chemical recovery under setting [1] came out at 76.8 ± 4.6%.

In the case of `CC(C)OC(=O)Nc1cccc(Cl)c1` [Chlorpropham], the chemical recovery was found to be 37.9 ± 13% under setting [2], 41.5 ± 2.7% under setting [3] and 43.8 ± 4.5% under setting [1].

With `CCOP(=S)(OCC)Oc1nc(Cl)c(Cl)cc1Cl` [Chlorpyrifos], under setting [4], the chemical recovery was found to be 33.3 ± 7.2%.

`C[C@H](CCC(=O)O)[C@H]1CC[C@H]2[C@@H]3[C@H](O)C[C@@H]4C[C@H](O)CC[C@]4(C)[C@H]3C[C@H](O)[C@]12C` [Cholic-acid]: the chemical recovery under setting [3] was 48.4 ± 3.9%.

As to `c1ccc2c(c1)ccc1c3ccccc3ccc21` [Chrysene], the chemical recovery under setting [3] came out at 10.9 ± 2.5%.

In the case of `CN/C(=N\CCSCc1nc[nH]c1C)NC#N` [Cimetidine], the chemical recovery under setting [1] turned out to be 54.8 ± 1.7%.

For the compound `CCCC1CC(C(=O)NC(C(C)Cl)C2OC(SC)C(O)C(O)C2O)N(C)C1` (stereo not drawn) [Clindamycin], the chemical recovery runs as follows: under setting [2], 36.7 ± 3.7%; under setting [3], 37.9 ± 2.5%; under setting [1], 65.5 ± 3.8%.

`Clc1ccccc1C(c1ccccc1)(c1ccccc1)n1ccnc1` [Clotrimazole]: under setting [4], the chemical recovery was 56.3 ± 11%.

Regarding `COc1cc2c(c(OC)c1OC)-c1ccc(OC)c(=O)cc1[C@@H](NC(C)=O)CC2` [Colchicine], the chemical recovery under setting [2] was determined as 48.5 ± 3.6%, the chemical recovery under setting [3] was 45 ± 3.9% and the chemical recovery under setting [1] turned out to be 70 ± 2.5%.

As for `Cc1ccc(-c2c(Cl)nc(C#N)n2S(=O)(=O)N(C)C)cc1` [Cyazofamid], the chemical recovery under setting [3] was determined as 41 ± 2%.

Under setting [3], `O=C1CCCCCCCCCCC1` [Cyclododecanone] gave a chemical recovery of 4.5 ± 3.9%.

Consider `NC1CCCCC1` [Cyclohexylamine], for which the chemical recovery was 2.9 ± 1.6% under setting [2], 2.07 ± 3.6% under setting [3] and 35.9 ± 9.5% under setting [1].

Under setting [3], `O=C(c1ccccc1)C1CCCCC1` [Cyclohexylphenylketone] registered a chemical recovery of 9.88 ± 8.6%.

As to `OC[C@@H](O)[C@@H](O)[C@H](O)[C@@H](O)CO` [D-Glucitol], the chemical recovery under setting [3] worked out at 3.85 ± 1.9%.

Regarding `CCN(CC)C(=O)c1cccc(C(=O)O)c1` [DEET-carboxylic-acid], the chemical recovery under setting [2] stood at 42.3 ± 4.4%, the chemical recovery under setting [3] was found to be 43.9 ± 4.5% and the chemical recovery under setting [1] was found to be 68.1 ± 5.1%.

Take `CCN(CC)C(=O)c1cccc(C)c1` [DEET]: the chemical recovery is, setting by setting: under setting [3], 30.1 ± 3%; under setting [1], 52.6 ± 4.4%.

Take `CC(C)CCCCCCOC(=O)C1CCCCC1C(=O)OCCCCCCC(C)C` (stereo not drawn) [DINCH]: the chemical recovery is, setting by setting: under setting [3], 6.04 ± 3.4%; under setting [4], 4.77 ± 1.6%.

As for `O=C(O)c1cc(SSc2ccc([N+](=O)[O-])c(C(=O)O)c2)ccc1[N+](=O)[O-]` [DTNB], the chemical recovery by setting is: under setting [2], 0.204 ± 0.051%; under setting [1], 0.0596 ± 0.028%.

`C1CCC2CCCCC2C1` (stereo not drawn) [Decahydronaphthalene] came in with a chemical recovery under setting [4] of 3.14 ± 1.3%.

Take `CCCCCCCCCCOS(=O)(=O)O` [Decylsulfate]: the chemical recovery was determined as 18.8 ± 4.3% under setting [3], 30.8 ± 9% under setting [4] and 50.4 ± 1.6% under setting [1].

In the case of `CC(C)c1ccc2c(c1)CC[C@H]1[C@](C)(C(=O)O)CCC[C@]21C` [Dehydroabietic-acid], the chemical recovery under setting [3] was found to be 29.7 ± 1.9%.

For the compound `CC[S+]([O-])CCSP(=O)(OC)OC` (stereo not drawn) [Demeton-S-methyl-sulfoxide], the chemical recovery was found to be 35.2 ± 3.8% under setting [2], 30.2 ± 2.2% under setting [3] and 42.7 ± 12% under setting [1].

Regarding `C[C@H](CCC(=O)O)[C@H]1CC[C@H]2[C@@H]3CC[C@@H]4C[C@H](O)CC[C@]4(C)[C@H]3C[C@H](O)[C@]12C` [Deoxycholic-acid], the chemical recovery runs as follows: under setting [3], 38.5 ± 8.1%; under setting [1], 75.8 ± 6.6%.

As to `CNCCCN1c2ccccc2CCc2ccccc21` [Desipramine], the chemical recovery came out at 1.49 ± 0.66% under setting [2], 35.8 ± 2.3% under setting [3] and 62.7 ± 6.1% under setting [1].

Regarding `CCNc1nc(N)nc(Cl)n1` [Desisopropylatrazine], the chemical recovery is, setting by setting: under setting [2], 50.7 ± 4.7%; under setting [3], 38.9 ± 2.4%.

As to `COc1ccc2c(c1)[C@]13CCCC[C@@H]1[C@H](C2)N(C)CC3` [Dextromethorphan], the chemical recovery is, setting by setting: under setting [2], 0.431 ± 0.16%; under setting [3], 39.3 ± 3.3%; under setting [1], 70.1 ± 5.1%.

Turning to `CCCCOP(=O)(O)OCCCC` [Di-n-butyl-phosphate], the chemical recovery by setting is: under setting [2], 40.8 ± 6.1%; under setting [3], 40.5 ± 3.9%.

Under setting [3], `CCCCCOC(=O)c1ccccc1C(=O)OCCCCC` [Di-n-pentylphthalate] came in with a chemical recovery of 29.6 ± 6.2%.

`CC(=O)NCCNC(C)=O` [Diacetylethylenediamine]: the chemical recovery was found to be 0.534 ± 0.055% under setting [2] and 0.155 ± 0.14% under setting [3].

On to `c1ccc2c(c1)sc1ccccc12` [Dibenzothiophene], for which the chemical recovery under setting [3] was 16.2 ± 6.1%.

The compound `CCCCOC(=O)CCCCCCCCC(=O)OCCCC` [Dibutyl-sebacate] had a chemical recovery under setting [3] of 28.7 ± 6.6%.

In turn, `COc1c(Cl)ccc(Cl)c1C(=O)O` [Dicamba] came in with a chemical recovery under setting [2] of 42.3 ± 2.6% and a chemical recovery under setting [3] of 37.9 ± 3.7%.

Take `Oc1cc(Cl)ccc1Oc1ccc(Cl)cc1` [Diclosan]: the chemical recovery under setting [3] stood at 32.1 ± 2.6% and the chemical recovery under setting [1] came to 41.7 ± 3.2%.

For the compound `COP(=O)(OC)O/C(C)=C/C(=O)N(C)C` [Dicrotophos], the chemical recovery reads like this: under setting [2], 38.5 ± 3.5%; under setting [3], 37.3 ± 0.93%; under setting [1], 59.3 ± 8.9%.

Turning to `O=C(CC(C(=O)OC1CCCCC1)S(=O)(=O)O)OC1CCCCC1` (stereo not drawn) [Dicyclohexyl sulfosuccinate], the chemical recovery worked out at 37.7 ± 3.3% under setting [2], 27.6 ± 3.1% under setting [3], 37.1 ± 6.9% under setting [4] and 71.8 ± 3.4% under setting [1].

For `O=C(CC(C(=O)OC1CCCCC1)S(=O)(=O)O)OC1CCCCC1` (stereo not drawn) [Dicyclohexyl-sulfosuccinate], the chemical recovery reads like this: under setting [2], 57.7 ± 5.7%; under setting [3], 44.3 ± 2.2%.

For the compound `C1CCC(NC2CCCCC2)CC1` [Dicyclohexylamine], the chemical recovery reads like this: under setting [3], 35.2 ± 2.1%; under setting [1], 53.8 ± 6.1%.

In the case of `O=C(NC1CCCCC1)NC1CCCCC1` [Dicyclohexylurea], the chemical recovery turned out to be 54.4 ± 4.7% under setting [2], 56.9 ± 0.74% under setting [3] and 78.6 ± 1.8% under setting [1].

In turn, `CCCCCCCCCC[N+](C)(C)CCCCCCCCCC` [Didecyldimethylammonium] showed a chemical recovery under setting [3] of 67.1 ± 21%.

Under setting [3], `COCCOCCO` [Diethyleneglycolmonomethylether] yielded a chemical recovery of 1.78 ± 2.6%.

For `O=C(Nc1ccc(F)cc1F)c1cccnc1Oc1cccc(C(F)(F)F)c1` [Diflufenican], the chemical recovery reads like this: under setting [3], 31 ± 3.5%; under setting [4], 35.6 ± 6.6%; under setting [1], 52.3 ± 4.8%.

`COCCOCCOC` [Diglyme] showed a chemical recovery under setting [3] of 11.5 ± 3.1%.

In turn, `CCCCCCOC(=O)c1ccccc1C(=O)OCCCCCC` [Dihexyl-phthalate] returned a chemical recovery under setting [3] of 20.6 ± 3.2%.

Under setting [3], `CC(=O)CCC1C(C)=CCCC1(C)C` (stereo not drawn) [Dihydro-alpha-ionone] returned a chemical recovery of 3.54 ± 6.1%.

As for `CC(C)CCCCOC(=O)c1ccccc1C(=O)OCCCCC(C)C` [Diisoheptyl-phthalate], the chemical recovery reads like this: under setting [3], 12.9 ± 3.1%; under setting [1], 103 ± 14%.

The compound `CC(C)CCCCCCOC(=O)c1ccccc1C(=O)OCCCCCCC(C)C` [Diisononyl-phthalate] showed a chemical recovery under setting [3] of 23.4 ± 7.7%.

Turning to `COC(=O)c1ccc(C(=O)OC)cc1` [Dimethyl-terephthalate], under setting [1], the chemical recovery worked out at 64.5 ± 14%.

As to `Cc1c(N(C)C)c(=O)n(-c2ccccc2)n1C` [Dimethylaminophenazone], the chemical recovery is, setting by setting: under setting [2], 6.91 ± 1.9%; under setting [3], 39.3 ± 2.3%; under setting [1], 73.8 ± 2%.

As for `COC(=O)c1ccccc1C(=O)OC` [Dimethylphthalate], the chemical recovery turned out to be 46 ± 3.9% under setting [2] and 67.3 ± 4.1% under setting [1].

On to `CC(C1=C(CCN(C)C)Cc2ccccc21)c1ccccn1` (stereo not drawn) [Dimetindene], for which the chemical recovery by setting is: under setting [2], 0.267 ± 0.076%; under setting [3], 24.1 ± 2.6%; under setting [1], 58.5 ± 5.4%.

For the compound `CN/C(=N/CC1CCOC1)N[N+](=O)[O-]` (stereo not drawn) [Dinotefuran], the chemical recovery reads like this: under setting [3], 27.4 ± 2.9%; under setting [1], 76.3 ± 3.7%.

`CC(C)(C)c1cc([N+](=O)[O-])cc([N+](=O)[O-])c1O` [Dinoterb] came in with a chemical recovery under setting [2] of 48.5 ± 5%.

The compound `CCCCC(CC)COC(=O)CC(C(=O)OCC(CC)CCCC)S(=O)(=O)O` (stereo not drawn) [Dioctylsulfosuccinate] gave a chemical recovery under setting [3] of 26.5 ± 1.6%.

On to `CCN(CCC#N)c1ccc(N=Nc2c(Br)cc([N+](=O)[O-])cc2Br)cc1` [Disperse-Orange-61], for which the chemical recovery runs as follows: under setting [3], 39.7 ± 11%; under setting [1], 80.2 ± 8.3%.

`CCOP(=S)(OCC)SCCSCC` [Disulfoton] gave a chemical recovery under setting [3] of 4.52 ± 2%.

Take `O=C1CCCCCCCCCCCN1` [Dodecane-12-lactam]: the chemical recovery by setting is: under setting [2], 47.4 ± 4.3%; under setting [3], 53.4 ± 0.92%; under setting [1], 66.7 ± 1.7%.

Compound `CCCCCCCCCCCCOS(=O)(=O)O` [Dodecyl sulfate] returned a chemical recovery under setting [3] of 33.8 ± 0.79%.

Consider `Cc1ccc(O)c(-n2nc3ccccc3n2)c1` [Drometrizole], for which the chemical recovery is, setting by setting: under setting [3], 15.4 ± 9.1%; under setting [1], 54.1 ± 4.6%.

For `CNCC[C@H](Oc1cccc2ccccc12)c1cccs1` [Duloxetine], the chemical recovery under setting [2] amounted to 1.6 ± 0.45%, the chemical recovery under setting [3] turned out to be 34.8 ± 2.4% and the chemical recovery under setting [1] turned out to be 59.7 ± 5.1%.
